Measurements taken from US20220009920A1 (GB005, Inc., priority 2020, published 2022).

Key:
Test in all cases: Large panel kinase profiling
Assay type in all cases: biochemical
Details in all cases: 1 μM test article, 1 mM ATP
[1] = molecular target: T1, MAP3K12 (Homo sapiens, UniProt Q12852)
T1 sequence (Q12852 1-859): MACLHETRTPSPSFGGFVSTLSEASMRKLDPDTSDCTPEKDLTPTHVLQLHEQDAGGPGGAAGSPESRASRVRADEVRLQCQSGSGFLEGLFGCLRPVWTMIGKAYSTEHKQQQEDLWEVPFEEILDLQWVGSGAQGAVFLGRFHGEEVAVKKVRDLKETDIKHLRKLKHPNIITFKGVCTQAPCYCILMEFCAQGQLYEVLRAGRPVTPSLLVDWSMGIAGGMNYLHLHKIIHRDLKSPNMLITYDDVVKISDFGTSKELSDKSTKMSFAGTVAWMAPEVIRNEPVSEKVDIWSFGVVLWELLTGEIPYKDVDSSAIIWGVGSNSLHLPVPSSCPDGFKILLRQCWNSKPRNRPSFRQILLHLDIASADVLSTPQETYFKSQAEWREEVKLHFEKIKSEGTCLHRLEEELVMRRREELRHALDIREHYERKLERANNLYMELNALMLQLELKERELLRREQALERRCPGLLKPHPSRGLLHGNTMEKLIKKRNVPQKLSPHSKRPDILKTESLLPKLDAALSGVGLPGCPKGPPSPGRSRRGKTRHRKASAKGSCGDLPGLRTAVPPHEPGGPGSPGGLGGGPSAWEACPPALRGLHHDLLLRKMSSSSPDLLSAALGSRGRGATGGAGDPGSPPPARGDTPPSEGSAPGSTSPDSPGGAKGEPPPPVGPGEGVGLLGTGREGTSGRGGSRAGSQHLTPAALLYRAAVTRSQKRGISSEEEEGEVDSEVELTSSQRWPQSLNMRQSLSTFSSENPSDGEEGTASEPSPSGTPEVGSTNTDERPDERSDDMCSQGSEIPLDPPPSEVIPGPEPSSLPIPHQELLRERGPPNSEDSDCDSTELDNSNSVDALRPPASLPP
How it was run: (§1)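 Profiling across the panel relied on the PhosphoSens CSox-Sensor format. A compound concentration of 1 μM and an ATP level of 1 mM were used throughout.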

[2] = molecular target: FES (Homo sapiens, UniProt P07332)
How it was run: as §1

[3] = molecular target: T2, LATS1 (Homo sapiens, UniProt O95835)
T2 sequence (O95835 1-1130): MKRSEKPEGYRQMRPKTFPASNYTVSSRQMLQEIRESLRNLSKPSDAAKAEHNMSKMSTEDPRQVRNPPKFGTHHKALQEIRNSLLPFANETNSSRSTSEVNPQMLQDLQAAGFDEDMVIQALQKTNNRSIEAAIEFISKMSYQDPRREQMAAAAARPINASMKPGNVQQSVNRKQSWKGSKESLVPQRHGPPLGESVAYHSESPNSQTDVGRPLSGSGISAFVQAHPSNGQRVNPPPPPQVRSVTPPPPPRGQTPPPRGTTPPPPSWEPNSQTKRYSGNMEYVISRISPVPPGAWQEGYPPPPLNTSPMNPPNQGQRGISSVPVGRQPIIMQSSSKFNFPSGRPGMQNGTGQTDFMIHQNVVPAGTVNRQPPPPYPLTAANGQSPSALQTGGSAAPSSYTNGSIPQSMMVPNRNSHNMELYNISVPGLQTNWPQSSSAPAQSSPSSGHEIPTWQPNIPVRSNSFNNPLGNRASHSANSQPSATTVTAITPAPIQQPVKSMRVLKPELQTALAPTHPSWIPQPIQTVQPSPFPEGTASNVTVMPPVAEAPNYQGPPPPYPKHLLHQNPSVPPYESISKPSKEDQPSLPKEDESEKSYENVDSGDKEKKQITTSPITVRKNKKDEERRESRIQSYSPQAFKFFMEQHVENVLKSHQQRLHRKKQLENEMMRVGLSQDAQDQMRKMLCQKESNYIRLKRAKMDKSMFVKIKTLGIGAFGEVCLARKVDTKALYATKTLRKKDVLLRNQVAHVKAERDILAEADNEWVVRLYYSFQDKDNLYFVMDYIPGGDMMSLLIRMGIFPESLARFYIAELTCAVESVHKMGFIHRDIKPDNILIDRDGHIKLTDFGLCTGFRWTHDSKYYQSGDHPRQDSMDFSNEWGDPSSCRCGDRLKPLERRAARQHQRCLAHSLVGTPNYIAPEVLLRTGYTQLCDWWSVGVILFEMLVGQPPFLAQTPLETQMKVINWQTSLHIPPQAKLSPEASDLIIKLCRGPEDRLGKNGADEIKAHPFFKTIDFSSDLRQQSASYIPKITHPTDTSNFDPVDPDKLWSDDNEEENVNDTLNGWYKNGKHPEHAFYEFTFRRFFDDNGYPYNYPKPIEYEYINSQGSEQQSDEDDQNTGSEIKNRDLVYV
How it was run: as §1

Sequence of FES (P07332 whole entry, species assumed): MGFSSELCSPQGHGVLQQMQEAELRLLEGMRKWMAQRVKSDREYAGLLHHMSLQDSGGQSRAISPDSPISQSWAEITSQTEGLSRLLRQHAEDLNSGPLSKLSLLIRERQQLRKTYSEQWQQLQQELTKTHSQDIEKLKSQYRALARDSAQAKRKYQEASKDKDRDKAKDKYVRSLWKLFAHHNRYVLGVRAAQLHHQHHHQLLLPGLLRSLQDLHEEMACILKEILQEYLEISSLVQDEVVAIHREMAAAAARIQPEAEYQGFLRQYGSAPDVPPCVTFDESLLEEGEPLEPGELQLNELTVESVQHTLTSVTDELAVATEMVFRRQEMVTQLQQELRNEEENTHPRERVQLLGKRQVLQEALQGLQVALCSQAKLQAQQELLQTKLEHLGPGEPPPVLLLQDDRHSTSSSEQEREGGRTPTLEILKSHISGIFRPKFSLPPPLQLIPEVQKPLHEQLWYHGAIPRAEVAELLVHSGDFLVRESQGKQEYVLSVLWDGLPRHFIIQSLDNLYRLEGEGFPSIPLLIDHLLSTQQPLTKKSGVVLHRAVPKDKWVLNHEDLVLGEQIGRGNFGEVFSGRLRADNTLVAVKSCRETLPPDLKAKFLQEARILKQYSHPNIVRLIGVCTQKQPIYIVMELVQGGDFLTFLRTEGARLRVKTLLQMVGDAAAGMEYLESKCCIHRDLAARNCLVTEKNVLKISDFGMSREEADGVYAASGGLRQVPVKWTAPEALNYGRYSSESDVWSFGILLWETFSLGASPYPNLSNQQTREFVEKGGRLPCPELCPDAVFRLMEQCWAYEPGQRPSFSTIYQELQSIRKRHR

`C=CC(=O)N1CCCC(c2c(F)cc(C(N)=O)c3[nH]c4c(c23)CCCCC4)C1` (single isomer, unassigned) [Compound 5-6] gave an inhibition at 1 µM [1] of 5%, an inhibition at 1 µM [2] of 24.5% and an inhibition at 1 µM [3] of -24.7%.

`C=CC(=O)N1CCC[C@@H](c2c(F)cc(C(N)=O)c3[nH]c4c(c23)CC2(CC4)CC2)C1` [Compound 6-2, (S)-5-(1-acryloylpiperidin-3-yl)-6-fluoro-1,2,4,9-tetrahydrospiro[carbazole-3,1′-cyclopropane]-8-carboxamide] showed an inhibition at 1 µM [1] of -18.8%, an inhibition at 1 µM [2] of -33% and an inhibition at 1 µM [3] of 10.1%.

With `C=CC(=O)N1CCC[C@@H](c2c(F)cc(C(N)=O)c3[nH]c4c(c23)CCC4)C1` [Compound 10-2, (S)-8-(1-acryloylpiperidin-3-yl)-7-fluoro-1,2,3,4-tetrahydrocyclo-penta[b]indole-5-carboxamide] the inhibition at 1 µM [1] was -27.7%, the inhibition at 1 µM [2] was -31.2% and the inhibition at 1 µM [3] was 22.9%.
